Consider four molecules from ChEMBL document CHEMBL1201862, “PubChem BioAssay data set” (2004).

Some test systems named below: LOX IMVI; SF-539; BT-549; SR; SNB-19; U-251; M19-MEL; MDA-MB-435; NCI-H23; OVCAR-5; SK-MEL-5; SNB-75; MDA-N; HL-60; SN12C; A498; MCF7; COLO 205; SK-MEL-2; HCC 2998.
What all share (experiment): NCI anticancer screen, dose series, 48 h

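Cultured in 96-well plates, cells were exposed to test compound for 48 hours across five concentrations. GI50 = concentration required for 50% inhibition of growth.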 The source made the active and inactive calls. No stated cut-off is given here; in the data, active = GI50 up to about 1.1 µM and inactive = higher.

Take `CC[C@@]1(O)C(=O)OCc2c1cc1n(c2=O)Cc2cc3ccccc3nc2-1` [CAMPTOTHECIN]: the GI50 was 0.0261 µM (active) in the test on LOX IMVI; 0.0145 µM (active) in the test on SF-539; 0.115 µM (active) in the test with BT-549; < 0.01 µM (active) in the test with SR; 0.0182 µM (active) in the test with SNB-19; 0.0111 µM (active) with U-251. Besides, the GI50 is 0.048 µM (active) in the test with M19-MEL; 0.0658 µM (active) in the test on MDA-MB-435; 0.0194 µM (active) with NCI-H23; 0.0809 µM (active) with OVCAR-5; 0.0272 µM (active) with SK-MEL-5; 0.0272 µM (active) in the test with SNB-75. Further, the GI50 is 0.145 µM (active) in the test on MDA-N; 0.015 µM (active) in the test on HL-60; 0.014 µM (active) with SN12C; 0.0322 µM (active) with A498; 0.0113 µM (active) with MCF7; 0.286 µM (active) in the test with COLO 205. Moreover, the GI50 with SK-MEL-2 is 0.298 µM (active); in the test on HCC 2998 it was 0.159 µM (active).

Turning to `O=C1/C(=C/c2ccc(Cl)cc2)CCC1CNc1ccc(Cl)cc1` (configuration not stated), the GI50 in the test on LOX IMVI was 0.673 µM (active); in the test on SF-539, 7.76 µM (inactive); with BT-549, 24.3 µM (inactive); with SR, 2.23 µM (inactive); with SNB-19, 14.7 µM (inactive); in the test with U-251 it was 9.71 µM (inactive). Besides, the GI50 in the test on M19-MEL was 3.97 µM (inactive); in the test on MDA-MB-435 it was 15.1 µM (inactive); in the test on NCI-H23, 10.3 µM (inactive); with OVCAR-5 it was 25.2 µM (inactive); in the test with SK-MEL-5, 3.33 µM (inactive); in the test with SNB-75, 32.3 µM (inactive). Moreover, the GI50 in the test on MDA-N is 11.8 µM (inactive); with HL-60 it was 0.703 µM (active); in the test on SN12C it was 10.2 µM (inactive); in the test on A498, 14.9 µM (inactive); with MCF7 it was 1.29 µM (inactive); in the test on COLO 205, 2.46 µM (inactive). Besides, the values for the GI50 in the test on SK-MEL-2 and in the test on HCC 2998 were 29.2 µM (inactive) and 6.01 µM (inactive), respectively.

Take `COc1c(Cl)c(Cl)c(OC)c2c1C(=O)C=CC2=O`: the GI50 is 15.9 µM (inactive) in the test on LOX IMVI; 20 µM (inactive) in the test on SF-539; 10.4 µM (inactive) with SR; 32.1 µM (inactive) with SNB-19; 20.7 µM (inactive) in the test with U-251; 18 µM (inactive) with M19-MEL. The GI50 in the test with NCI-H23 was 40.4 µM (inactive); with OVCAR-5, 35.5 µM (inactive); in the test with SK-MEL-5, 34.9 µM (inactive); in the test with SNB-75, 21.4 µM (inactive); in the test on HL-60, 2.17 µM (inactive); with SN12C, 23.4 µM (inactive). The GI50 is > 100 µM (inactive) in the test with A498, 16.2 µM (inactive) in the test on COLO 205, 17.3 µM (inactive) with SK-MEL-2 and 60.3 µM (inactive) with HCC 2998.

For `C[N+](C)(C)CCc1ccccc1`, the GI50 with LOX IMVI, in the test on SF-539, in the test with SR, in the test on SNB-19, with U-251 and in the test on M19-MEL was > 100 µM (inactive) each time. In addition, the GI50 in the test on NCI-H23, in the test with OVCAR-5, with SK-MEL-5, in the test on SNB-75, in the test on HL-60 and in the test with SN12C was > 100 µM (inactive) each time. Also, the GI50 in the test on A498, in the test with COLO 205, with SK-MEL-2 and in the test with HCC 2998 was > 100 µM (inactive) in each case.
